# From patent publication US11065249B2, “Diacylglycerol acyl transferase 2 inhibitor” (Pfizer Inc., priority 2019, dated 2021)
# Experiments:
# [1] = Determination of pKa (capillary electrophoresis, Analiza); assay type: physicochemical; settings: most basic pKa, mean
# human hepatocytes [2] = experiment: Intrinsic clearance in human hepatocytes (relay method); assay type: in vitro ADME; settings: relay hepatocyte assay, 1 μM test compound, mean +/− Std Dev
# Protocol: (§1) Cryopreserved human hepatocytes (Lot DCM from BioreclamationIVT) were used. […] At time 0 and 4 h, 25 μL of hepatocyte suspension was removed from the incubation and added to 50 μL of ice-cold acetonitrile (containing metoprolol, indomethacin, and terfenadine as internal standards) to quench the reaction. The samples were centrifuged (Eppendorf, Hauppauge, N.Y.) at 3000 rpm (1439×g) for 10 min at room temperature, and 50 μL of supernatant was transferred to a clean plate, dried completely, and reconstituted before liquid chromatography/tandem mass spectrometry (LC-MS/MS) analysis. The remaining hepatocyte suspensions in the incubation plate were centrifuged (3000 rpm, 1439×g, 10 min, room temperature). The supernatant of 300 μL was transferred to a clean 24-well plate and stored at −80° C. until the next relay experiment. For the second relay experiment, the supernatant plates were warmed first to room temperature for 30 minutes, then to 37° C. for 30 min, and hepatocytes were added to the samples to give a final cell density of 0.5 million cells/mL. The plates were incubated at 37° C. for 4 h, sampled, and processed as described above. Five relays were performed to give a total incubation time of 20 h, with sampling points at (0, 4, 8, 12, 16 and 20 h). The concentrations of test compound determined at each time point by the LC-MS/MS analysis were used to calculate the intrinsic clearance.
# human hepatocytes [3] = experiment: High throughput determination of intrinsic clearance in human hepatocytes; assay type: in vitro ADME; settings: high throughput human hepatocyte assay, 1 μM test compound; mean +/− Std Dev
# Protocol: (§2) The incubation was carried out at 37° C. […] The samples were centrifuged (Eppendorf, Hauppauge, N.Y.) at 3000 rpm for 5 min at 4° C.
# [4] = Intrinsic clearance in human liver microsomes; assay type: in vitro ADME; settings: 1 μM test compound, mean +/− STD Dev; for CLint (+/−STD Dev): human liver microsome assay
# Protocol: The incubations were conducted at 37° C. […] (Sorvall R C 3C Plus, Thermo Scientific, Waltham, Mass.).
# [5] = target: DGAT2 in human hepatocytes (Homo sapiens (Human), UniProt Q96PD7); experiment: Determination of IC50 values for DGAT2 inhibitors in human hepatocytes; assay type: cell-based; settings: inhibition of DGAT2 in human hepatocytes; geometric mean
# DGAT2 in human hepatocytes, sequence (Q96PD7 whole entry): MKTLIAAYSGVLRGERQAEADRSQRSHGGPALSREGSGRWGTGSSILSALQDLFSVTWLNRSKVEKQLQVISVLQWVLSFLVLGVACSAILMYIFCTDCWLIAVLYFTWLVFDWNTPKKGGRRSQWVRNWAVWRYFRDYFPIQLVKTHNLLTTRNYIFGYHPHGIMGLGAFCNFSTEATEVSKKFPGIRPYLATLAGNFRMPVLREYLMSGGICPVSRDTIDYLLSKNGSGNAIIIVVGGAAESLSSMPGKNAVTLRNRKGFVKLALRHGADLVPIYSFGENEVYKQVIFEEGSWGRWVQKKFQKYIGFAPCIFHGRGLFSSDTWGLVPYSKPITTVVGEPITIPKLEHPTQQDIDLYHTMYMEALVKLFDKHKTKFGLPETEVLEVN
# Protocol: For evaluation of the effects of DGAT2 inhibitors in a cell-based setting, cryopreserved human hepatocytes (Lot DOO, Celsis, Baltimore, Md.) were thawed and plated onto type I collagen-coated plates according to the manufacturer's instructions. After 18 hours overnight recovery period, the cells were overlayed with media containing 250 μg/mL Geltrex Basement Membrane Matrix (Thermo Fisher). The following day, media was aspirated and replaced with serum-free Williams Media E (Thermo Fisher) containing 400 μM sodium dodecanoate (Sigma-Aldrich, St. Louis, Mo.) and 2 mM GlutaMAX (Thermo Fisher). […] DGAT2 inhibitors were then added to the desired final concentration. After a 15 minute preincubation, 0.2 μCi [^14C(U)]-glycerol (Perkin Elmer) was added to each well followed by a 3 hour incubation. At this point the media was removed, and the cells lysed via orbital shaking in isopropyl alcohol:tetrahydrofuran (9:1) for 15 minutes prior to centrifugation at 3000 rpm for 10 minutes. Radiolabeled lipids were resolved using a solvent system by thin layer chromatography with the solvent consisting of hexanes:diethyl ether:glacial acetic acid (75:23:2, v/v/v). After separation, radiolabeled lipids were visualized using the Typhoon 9500 phosphorimaging system (GE). The half maximal inhibitory concentrations (IC50 values) were determined by nonlinear regression analysis of the % inhibition dose response curve using GraphPad Prism (GraphPad Software, Inc., La Jolla, Calif.).
# Table 5 below provides the IC50 values of selected Examples for inhibition of DGAT2 in human hepatocytes in accordance with the above-described assay. Results are reported as geometric mean IC50 values, with the number of replicates (n) shown.
# [6] = Intrinsic clearance in human hepatocytes (relay method); assay type: in vitro ADME; settings: cryopreserved human hepatocytes (suspension), relay hepatocyte assay, 1 μM test compound, mean +/− Std Dev
# Protocol: as §1
# [7] = High throughput determination of intrinsic clearance in human hepatocytes; assay type: in vitro ADME; settings: human, pooled cryopreserved human hepatocytes (suspension), high throughput human hepatocyte assay, 1 μM test compound; mean +/− Std Dev
# Protocol: as §2
# human DGAT2 (hDGAT2) = human DGAT2 (hDGAT2) (Homo sapiens (Human), UniProt Q96PD7); experiment: In vitro DGAT2 assay, determination of IC50 values for DGAT2 inhibitors; assay type: biochemical; settings: inhibition of DGAT2, hDGAT2 membrane fractions; geometric mean
# human DGAT2 (hDGAT2), sequence (Q96PD7 whole entry): as above
# Protocol: Recombinant baculovirus for the FLAG-tagged hDGAT2 was generated in SF9 insect cells using Bac-to-Bac baculovirus expression system (Invitrogen) according to the manufacturer's protocol. For the expression of hDGAT2, SF9 cells (20 L) grown in Sf900II media were infected with hDGAT2 baculovirus at a multiplicity of infection of 1 in a Wave Bioreactor System 20/50P wave bag (GE Healthcare). After 40 hours of infection, the cells were then harvested by centrifugation at 5,000×g. The cell pellets were washed by resuspending in phosphate buffered saline (PBS) and collected by centrifugation at 5,000×g. The cell paste was flash frozen in liquid N2 and stored at −80° C. until needed. All operations below were at 4° C. unless otherwise noted. The cells were resuspended in lysis buffer (50 mM Tris-HCl, pH 8.0, 250 mM sucrose) including 1 mM ethylenediaminetetraacetic acid (EDTA) and the complete protease inhibitor cocktail (Roche Diagnostics) at a ratio of 3 mL buffer per 1 g cell paste. The cells were lysed by dounce homogenizer. The cell debris was removed by centrifugation at 1,000×g for 20 min, and the supernatant was centrifuged at 100,000×g for 1 hour. The resulting pellet was rinsed three times by filling ultracentrifuge tubes to the top with ice cold PBS before decanting. The washed pellet was resuspended with gentle stirring for 1 hour in lysis buffer containing 8 mM 3-[(3-cholamidopropyl)dimethylammonio]-1-propanesulfonate (CHAPS) at a ratio of 1 mL buffer per 1 g of original cell paste and centrifuged again at 100,000×g for 1 hour. The resulting supernatant was aliquotted, flash frozen in liquid N2, and stored at −80° C. until use.
# To 1 μL of compounds dissolved in 100% DMSO and spotted at the bottom of each well, 5 μL of 0.04% bovine serum albumin (BSA) (fatty acid free, Sigma Aldrich) was added and the mixture was incubated at room temperature for 15 minutes. hDGAT2 membrane fractions were diluted in 100 mM Hepes-NaOH, pH 7.4, 20 mM MgCl2 containing 200 nM methyl arachidonyl fluorophosphonate (Cayman Chemical, dried from ethyl acetate stock solution under argon gas and dissolved in DMSO as 5 mM stock). 10 μL of this enzyme working solution was added to the plates and incubation continued for 2 hours at room temperature. DGAT2 reactions were initiated by the addition of 4 μL of substrates containing 30 μM [1-^14C]decanoyl-CoA (custom-synthesized by Perkin Elmer, 50 mCi/mmol) and 125 μM 1,2-didecanoyl-sn-glycerol (Avanti Polar Lipids) dissolved in 12.5% acetone. The reaction mixtures were incubated at room temperature for 40 min and the reactions were stopped by addition of 5 μL of 1% H3PO4. After the addition of 45 μL MicroScint-E (Perkin-Elmer), plates were sealed with Top Seal-A covers (Perkin-Elmer) and phase partitioning of substrates and products was achieved using a HT-91100 microplate orbital shaker (Big Bear Automation, Santa Clara, Calif.). Plates were centrifuged at 2,000×g for 1 minute in an Allegra 6R Centrifuge (Beckman Coulter) and then were sealed again with fresh covers before reading in a 1450 Microbeta Wallac Trilux Scintillation Counter (Perkin Elmer). DGAT2 activity was measured by quantifying the generated product [^14C]tridecanoylglycerol in the upper organic phase.
# Inhibitors were tested at eleven different concentrations to generate IC50 values for each compound.
SMILES,Basic pKa [1],CLint (+/−Std Dev) (human hepatocytes [2]),CLint (+/−Std Dev) (human hepatocytes [3]),CLint (+/−STD Dev) [4],IC50 [5],pKa [1],hepatocyte CLint at 1 μM [6],hepatocyte CLint at 1 μM [7],"microsomal CLint at 1 μM ([4]; human, pooled human liver microsomes, pH 7.4, human liver microsome assay)",IC50 (human DGAT2 (hDGAT2))
"CCOc1cccnc1Oc1cncc(-c2ncc(C(=O)NC3(CO)CCOC3)cn2)c1 (single isomer, unassigned) [WO2018033832 Ex. 6a]",2.3,3.2 +/− 0.21 μL/min/million cells,<3.8 +/− 1.1 μL/min/10^6 cells,13 ± 2.0 µL/min/mg,–,–,–,–,–,–
"CCOc1cccnc1Oc1cncc(-c2ncc(C(=O)NC3(CO)CCOC3)cn2)c1 (single isomer, unassigned) [WO2018033832 Ex. 6b]",2.4,2.9 +/− 0.057 μL/min/million cells,<3.3 +/− 0.49 μL/min/10^6 cells,<11 ± 3.5 µL/min/mg,–,–,–,–,–,–
"CCOc1cccnc1Oc1cncc(-c2ncc(C(=O)N[C@@H]3CNCC[C@H]3F)cn2)c1 [Example 5, 2-{5-[(3-Ethoxypyridin-2-yl)oxy]pyridin-3-yl}-N-[(3R,4R)-4-fluoropiperidin-3-yl]pyrimidine-5-carboxamide]",–,–,–,–,26 nM,7.3,1.9 µL/min/1e6 cells,< 1.9 µL/min/1e6 cells,< 7 µL/min/mg,–
CCOc1cccnc1Oc1cncc(-c2ncc(C(=O)N[C@H]3CCOC3)cn2)c1 [WO2018033832 Ex. 1],2.4,3.9 +/− 0.52 μL/min/million cells,<3.8 +/− 1.1 μL/min/10^6 cells,11 ± 2.9 µL/min/mg,2.8 nM,–,–,–,–,17 nM
CCOc1cccnc1Oc1cncc(-c2ncc(C(=O)N[C@@H]3CCOC3)cn2)c1 [WO2018033832 Ex. 2],2.5,4.9 +/− 0.17 μL/min/million cells,4.7 +/− 0.55 μL/min/10^6 cells,17 ± 1.3 µL/min/mg,–,–,–,–,–,200 nM
